The text below walks through data of patent publication US12195476B2, “Synthesis method of furoimidazopyridine compound, crystal form of furoimidazopyridine compound, and crystal form of salt thereof” (HANGZHOU HIGHLIGHTLL PHARMACEUTICAL CO., LTD, priority 2019, dated 2025).

≈ marks a conversion by molar mass, not a printed value. Structures can show the parent of a compound that is named as a salt. Where two headings read alike, the source gives them in different places.

What all share (assay type): physicochemical
A short description of series [1]: DSC test of salt crystal forms (thermostability). The following applies: single and higher melting points, result in words. As for the experimental part:
(§1) DSC, TGA and DVS tests were conducted for crystal form A of a hydrochloride of a compound of formula I, crystal form B of a sulfate of a compound of formula I, crystal form C of a hydrobromide of a compound of formula I and crystal form D of a phosphate of a compound of formula I.

Series [2] can be described thus: Dynamic vapor sorption (DVS) hygroscopicity test. Particulars: for Hygroscopicity: weight gain by moisture absorption: 0% RH-95% RH, 25° C.; for change of crystal form before and after the DVS test: result in words. As for the experimental part:
as §1

Series [3] can be described thus: Solubility test in water, SGF, FaSSIF and FeSSIF (37° C., HPLC). Particulars: for difference in the equilibrium solubilities (24 h) between crystal form 1 and crystal form D: FaSSIF and FeSSIF, result in words; for Solubility (based on a compound of formula I) / solubility at 30 min / solubility at 2 h / solubility at 4 h / solubility at 24 h: 37° C.; for solubility at 30 min / solubility at 2 h / solubility at 4 h / solubility at 24 h: 37 °C, thermodynamic from solid, read-out: Solubility (based on a compound of formula I). As for the experimental part: 4 samples, each of crystal form 1 of a compound of formula I and crystal form D of a phosphate of a compound of formula I each with appropriate amount were weighed and placed into a 4 mL transparent glass bottle respectively, 1 mL of water, simulated gastric fluid (SGF), fasted-state simulated intestinal fluid (FaSSIF) and fed-state simulated intestinal fluid (FeSSIF) were added respectively, sample suspension was obtained and quickly placed on a shaker (37° C., 200 rpm) and the shaker was shaked, the samples were observed 5 minutes later, a quantity of samples or medium were supplemented to obtain mild suspension, samples were taken at 30 minutes, 2 hours, 4 hours and 24 hours, respectively, centrifuged for 10 minutes at 12000 rpm, the supernatants were collected, diluted appropriately and then were tested by a higher performance liquid chromatography.
The sample concentrations were calculated with an external standard method.

A short description of series [4]: Stability test at high temperature and in accelerated conditions (HPLC purity, XRPD, DSC). Particulars: for Stability study: Crystal form: 2 weeks (XRPD); for 2-week physical and chemical stabilities: high temperature (60° C.) and accelerated conditions (40° C./75% RH), result in words. As to the method: About 1 mg of crystal form 1 of a compound of formula I and 1 mg of crystal form D of a phosphate of a compound of formula I samples were weighed and each was placed into a 40 mL transparent glass bottle, the samples were placed in a stability chamber in accelerated conditions (40° C./75% RH, open) and at a high temperature (60° C., sealed) respectively. For the open samples, the bottle cap was removed and the bottle neck was covered with aluminium-foil paper stabbed with pinholes to avoid cross contamination; for the closed samples, each bottle was covered with a cap and sealed tightly. Samples were taken at week 1 and week 2, respectively, after diluted with diluent (acetonitrile/water (1/1) (v/v), the liquid phases were injected according to the chromatographic conditions in Table 12 to determine sample purities.
The sample purities were calculated with an area normalization method.

Consider `C[C@@H](O)c1nc2cnc3ccoc3c2n1[C@H]1CC[C@H](CC#N)OC1` [Crystal form B of a sulfate of a compound of formula I] [2-[(2R,5S)-5-[2-[(R)-1-hydroxyethyl]furo[3,2-b]imidazo[4,5-d]pyridin-1-yl]tetrahydropyran-2-yl]acetonitrile], for which the “thermostability of the crystal form” value in series [1] is listed as “relatively good”. The “Hygroscopicity: weight gain by moisture absorption” value (from here on “Hygroscopicity: weight gain”) in series [2] (DVS) came out at 9.4%; in series [2] (DVS, listed as crystal form B of a sulfate of a compound of formula I), 9.4%. Further, the “change of crystal form before and after the DVS test” value in series [2] is given as “no significant changes”.
For `C[C@@H](O)c1nc2cnc3ccoc3c2n1[C@H]1CC[C@H](CC#N)OC1` [Crystal form D of a phosphate of a compound of formula I] [2-[(2R,5S)-5-[2-[(R)-1-hydroxyethyl]furo[3,2-b]imidazo[4,5-d]pyridin-1-yl]tetrahydropyran-2-yl]acetonitrile], in series [3], the “difference in the equilibrium solubilities (24 h) between crystal form 1 and crystal form D” value is “no obvious difference”. For the same molecule, the “Solubility (based on a compound of formula I)” value in series [3] (Fed-state simulated intestinal fluid (FeSSIF), 30 min) was 360 µg/mL; in series [3] (Fed-state simulated intestinal fluid (FeSSIF), 2 h), 220 µg/mL; in series [3] (Fed-state simulated intestinal fluid (FeSSIF), 4 h), 190 µg/mL; in series [3] (Fed-state simulated intestinal fluid (FeSSIF), 24 h) it was 210 µg/mL; in series [3] (Water, 30 min), 1850 µg/mL; in series [3] (Water, 2 h), 1780 µg/mL. The “Solubility (based on a compound of formula I)” value was 1730 µg/mL in series [3] (Water, 4 h) and 1800 µg/mL in series [3] (Water, 24 h (equilibrium)). For the same molecule, the “equilibrium solubility (24 h) relative to crystal form 1 of a compound of formula I” value in series [3] (SGF) is 2 times; in series [3] (water) it was 10 times. Moreover, the “thermostability of the crystal form” value in series [1] is “relatively good”. Moreover, the “Hygroscopicity: weight gain” value in series [2] (DVS) came out at 4.7%; in series [2] (DVS, listed as crystal form D of a phosphate of a compound of formula I), 4.7%. Moreover, the “change of crystal form before and after the DVS test” value in series [2] is on record as “no significant changes”. The “Stability study (purity)” value in series [4] (0 day) worked out at 99.13 Area %; in series [4] (40° C./75% RH, open, 1 week), 99.11 Area %; in series [4] (40° C./75% RH, open, 2 weeks), 99.10 Area %; in series [4] (60° C., sealed, 1 week) it was 99.11 Area %; in series [4] (60° C., sealed, 2 weeks) it was 99.11 Area %. Besides, the “Stability study: Crystal form” value is “Unchanged” in series [4] (40° C./75% RH, open) and “Unchanged” in series [4] (60° C., sealed). Also, the “2-week physical and chemical stabilities” value in series [4] is on record as “good”.
On to `C[C@@H](O)c1nc2cnc3ccoc3c2n1[C@H]1CC[C@H](CC#N)OC1` [Crystal form 1 of a compound of formula I] [2-[(2R,5S)-5-[2-[(R)-1-hydroxyethyl]furo[3,2-b]imidazo[4,5-d]pyridin-1-yl]tetrahydropyran-2-yl]acetonitrile], for which the “difference in the equilibrium solubilities (24 h) between crystal form 1 and crystal form D” value in series [3] was “no obvious difference”. Moreover, the “Solubility (based on a compound of formula I)” value in series [3] (Fasted-state simulated intestinal fluid (FaSSIF), 30 min) was 170 µg/mL; in series [3] (Fasted-state simulated intestinal fluid (FaSSIF), 2 h, listed as Crytstal form 1 of a compound of formula I) it was 190 µg/mL; in series [3] (Fasted-state simulated intestinal fluid (FaSSIF), 4 h, listed as Crytstal form 1 of a compound of formula I) it was 160 µg/mL; in series [3] (Fasted-state simulated intestinal fluid (FaSSIF), 24 h, listed as Crytstal form 1 of a compound of formula I) it was 170 µg/mL; in series [3] (Simulated gastric fluid (SGF), 30 min, listed as Crytstal form 1 of a compound of formula I), 16520 µg/mL; in series [3] (Simulated gastric fluid (SGF), 2 h, listed as Crytstal form 1 of a compound of formula I) it was 16710 µg/mL. Besides, the “Solubility (based on a compound of formula I)” value is 16880 µg/mL in series [3] (Simulated gastric fluid (SGF), 4 h, listed as Crytstal form 1 of a compound of formula I); 16420 µg/mL in series [3] (Simulated gastric fluid (SGF), 24 h (equilibrium), listed as Crytstal form 1 of a compound of formula I); 160 µg/mL in series [3] (Water, 30 min, listed as Crytstal form 1 of a compound of formula I); 180 µg/mL in series [3] (Water, 2 h, listed as Crytstal form 1 of a compound of formula I); 160 µg/mL in series [3] (Water, 4 h, listed as Crytstal form 1 of a compound of formula I); 180 µg/mL in series [3] (Water, 24 h (equilibrium), listed as Crytstal form 1 of a compound of formula I). Also, the “Hygroscopicity: weight gain” value is recorded as 5.2% in series [2] (DVS) and 5.2% in series [2] (DVS, listed as crystal form 1 of a compound of formula I). In series [2] (DVS, desorption 95% RH to 0% RH), the “water remaining after desorption” value is given as 2%. For the same molecule, the “Stability study (purity)” value worked out at 98.74 Area % in series [4] (0 day); 98.71 Area % in series [4] (40° C./75% RH, open, 1 week); 98.77 Area % in series [4] (40° C./75% RH, open, 2 weeks); 98.73 Area % in series [4] (60° C., sealed, 1 week); 98.74 Area % in series [4] (60° C., sealed, 2 weeks). Besides, the “Stability study: Crystal form” value in series [4] (40° C./75% RH, open) is “Unchanged”; in series [4] (60° C., sealed), “Unchanged”. Also, in series [4], the “2-week physical and chemical stabilities” value was “good”.
Consider `C[C@@H](O)c1nc2cnc3ccoc3c2n1[C@H]1CC[C@H](CC#N)OC1` [2-[(2R,5S)-5-[2-[(R)-1-hydroxyethyl]furo[3,2-b]imidazo[4,5-d]pyridin-1-yl]tetrahydropyran-2-yl]acetonitrile], for which the solubility at 30 min was 170 µg/mL (≈ 521 µM) in series [3] (fasted-state simulated intestinal fluid (FaSSIF), fassif, Fasted-state simulated intestinal fluid (FaSSIF), 30 min); 260 µg/mL (≈ 797 µM) in series [3] (fed-state simulated intestinal fluid (FeSSIF), fessif, Fed-state simulated intestinal fluid (FeSSIF), 30 min); 30200 µg/mL (≈ 92600 µM) in series [3] (simulated gastric fluid (SGF), simulated gastric fluid, Simulated gastric fluid (SGF), 30 min). Moreover, the solubility at 2 h is 170 µg/mL (≈ 521 µM) in series [3] (fasted-state simulated intestinal fluid (FaSSIF), fassif, Fasted-state simulated intestinal fluid (FaSSIF), 2 h); 230 µg/mL (≈ 705 µM) in series [3] (fed-state simulated intestinal fluid (FeSSIF), fessif, Fed-state simulated intestinal fluid (FeSSIF), 2 h); 29700 µg/mL (≈ 91100 µM) in series [3] (simulated gastric fluid (SGF), simulated gastric fluid, Simulated gastric fluid (SGF), 2 h). The solubility at 4 h in series [3] (fasted-state simulated intestinal fluid (FaSSIF), fassif, Fasted-state simulated intestinal fluid (FaSSIF), 4 h) was 170 µg/mL (≈ 521 µM); in series [3] (fed-state simulated intestinal fluid (FeSSIF), fessif, Fed-state simulated intestinal fluid (FeSSIF), 4 h), 220 µg/mL (≈ 674 µM); in series [3] (simulated gastric fluid (SGF), simulated gastric fluid, Simulated gastric fluid (SGF), 4 h), 29500 µg/mL (≈ 90300 µM). Further, the solubility at 24 h in series [3] (fasted-state simulated intestinal fluid (FaSSIF), fassif, Fasted-state simulated intestinal fluid (FaSSIF), 24 h) is 160 µg/mL (≈ 490 µM); in series [3] (fed-state simulated intestinal fluid (FeSSIF), fessif, Fed-state simulated intestinal fluid (FeSSIF), 24 h) it was 240 µg/mL (≈ 735 µM); in series [3] (simulated gastric fluid (SGF), simulated gastric fluid, Simulated gastric fluid (SGF), 24 h (equilibrium)), 30200 µg/mL (≈ 92500 µM).

The term solubility denotes the dissolved amount per volume that the medium holds.
